Results: patent publication US8802713B2, “3-alkoxy-1-phenylpyrazole derivatives and pesticides” (Kumiai Chemical Industry Co., Ltd., priority 2007, dated 2014)
Like-named read-outs stand apart in the source and are kept apart here.

How the values were obtained:
two-spotted spider mites = assay: Miticidal test on two-spotted spider mites (seedling dip); format: in vivo, Tetranvchus urticae; details: Glycine max, 312 h; 500 ppm active ingredient, soybean seedlings with imago mites dipped, 25° C., 13 days; read-out: protective value
Description: A wettable powder prepared in accordance with Formulation Example 2 was diluted with water to a concentration of an active ingredient of 500 ppm. Soybean seedlings which had been inoculated with imago two-spotted spider mites were dipped in the solution and dried in air. The treated soybean seedlings were placed in a thermostatic chamber at 25° C. for 13 days, and the number of live mites were assessed for calculation of the protective value by Equation 1. The test was carried out by one series system.

brown rice planthopper = assay: Insecticidal test on brown rice planthopper; format: in vivo; details: 144 h
Description: A wettable powder prepared in accordance with Formulation Example 2 was diluted with water to a concentration of an active ingredient of 500 ppm. Rice sprouts were dipped in this solution and put in a plastic cup having a capacity of 60 mL. Ten third-instar larvae of brown rice planthopper were released in the cup, the cup was lidded and placed in a thermostatic chamber at 25° C. for 6 days, and the number of dead larvae were counted for calculation of the mortality by Equation 2. The test was carried out by one series system.

diamondback moth = assay: Insecticidal test on diamondback moth; format: in vivo; details: Plutella xylostella, 144 h
Description: A wettable powder prepared in accordance with Formulation Example 2 was diluted with water to a concentration of an active ingredient of 500 ppm. Cabbage leaves were dipped in this solution and dried in air and then put in a plastic cup having a capacity of 60 mL. 10 second-instar larvae of diamondback moth were released in the cup and the cup was lidded. Then, the cup was placed in a thermostatic chamber at 25° C. for 6 days, and dead moths were counted for calculation of the mortality by Equation 2. The test was carried out by one series system.

cotton aphid = assay: Insecticidal test on cotton aphid (seedling dip); format: in vivo; details: Aphis gossypii, in Cucumis sativus, 72 h
Description: A wettable powder prepared in accordance with Formulation Example 2 was diluted with water to a concentration of an active ingredient of 500 ppm. Cucumber seedlings which had been inoculated with larvae of cotton aphid were dipped in this solution and dried in air. The treated cucumber seedlings were placed in a thermostatic chamber at 25° C. for 3 days, and the live insects were counted for calculation of the mortality by Equation 2. The test was carried out by one series system.

Row | Compound | pest or weed control at 500 ppm (two-spotted spider mites) | mortality at 500 ppm (brown rice planthopper) | mortality at 500 ppm (diamondback moth; in Brassica oleracea) | mortality at 500 ppm (cotton aphid) | mortality at 500 ppm (diamondback moth; 500 ppm active ingredient, cabbage leaves dipped, second-instar larvae, 25° C., 6 days, read-out: mortality)
1 | Cc1cc(F)c(-n2cc(Cl)c(OC(F)(F)C(F)OC(F)(F)F)n2)cc1[S+]([O-])CC(F)(F)F (stereo not shown) [1-290, 4-chloro-1-{2-fluoro-4-methyl-5-(2,2,2-trifluoroethylsulfinyl)phenyl}-3-{1,1,2-trifluoro-2-(trifluoromethoxy)ethoxy}pyrazole] | ≥ 90% | ≥ 90% |  |  | 
2 | CNc1c(Cl)c(OC(F)(F)C(F)C(F)(F)F)nn1-c1cc([S+]([O-])CC(F)(F)F)c(C)cc1F (stereo not shown) [1-262, 4-chloro-1-{2-fluoro-4-methyl-5-(2,2,2-trifluoroethylsulfinyl)phenyl}-3-(1,1,2,3,3,3-hexafluoropropoxy)-5-methylaminopyrazole] | ≥ 90% | ≥ 90% | ≥ 90% |  | 
3 | Cc1cc(F)c(-n2nc(OCC(F)(F)C(F)(F)F)cc2CO)cc1SCC(F)(F)F [1-201, 1-{2-fluoro-4-methyl-5-(2,2,2-trifluoroethylthio)phenyl}-5-hydroxymethyl-3-(2,2,3,3,3-pentafluoropropoxy)pyrazole] | ≥ 90% | ≥ 90% |  |  | 
4 | Cc1cc(F)c(-n2nc(OCCC(F)(F)F)cc2C)cc1SCC(F)(F)F [1-249, 1-{2-fluoro-4-methyl-5-(2,2,2-trifluoroethylthio)phenyl}-5-methyl-3-(3,3,3-trifluoropropoxy)pyrazole] | ≥ 90% | ≥ 90% |  |  | 
5 | Cc1cc(F)c(-n2nc(OCCC(F)(F)F)cc2C)cc1[S+]([O-])CC(F)(F)F (stereo not shown) [1-250, 1-{2-fluoro-4-methyl-5-(2,2,2-trifluoroethylsulfinyl)phenyl}-5-methyl-3-(3,3,3-trifluoropropoxy)pyrazole] | ≥ 90% | ≥ 90% |  | ≥ 90% | 
6 | Cc1cc(F)c(-n2nc(OCC(F)(F)C(F)(F)F)c(Cl)c2Cl)cc1SCC(F)(F)F [1-111, 1-{2-fluoro-4-methyl-5-(2,2,2-trifluoroethylthio)phenyl}-4,5-dichloro-3-(2,2,3,3,3-pentafluoropropoxy)pyrazole] | ≥ 90% | ≥ 90% |  |  | 
7 | Cc1cc(F)c(-n2nc(OCC(F)(F)C(F)(F)F)cc2C#N)cc1[S+]([O-])CC(F)(F)F (stereo not shown) [1-134, 5-cyano-1-{2-fluoro-4-methyl-5-(2,2,2-trifluoroethylsulfinyl)phenyl}-3-(2,2,3,3,3-pentafluoropropoxy)pyrazole] | ≥ 90% | ≥ 90% |  |  | 
8 | Cc1cc(F)c(-n2nc(OCC(F)(F)C(F)(F)F)c(Cl)c2N)cc1SCC(F)(F)F [1-43, 5-amino-4-chloro-1-{2-fluoro-4-methyl-5-(2,2,2-trifluoroethylthio)phenyl}-3-(2,2,3,3,3-pentafluoropropoxy)pyrazole] | ≥ 90% | ≥ 90% | ≥ 90% |  | 
9 | Cc1cc(F)c(-n2ccc(Oc3ccc(C(F)(F)F)cc3)n2)cc1[S+]([O-])CC(F)(F)F (stereo not shown) [1-1586, 1-{2-fluoro-4-methyl-5-(2,2,2-trifluoroethylsulfinyl)phenyl}-3-{4-(trifluoromethyl)phenoxy}pyrazole] | ≥ 90% | ≥ 90% |  |  | 
10 | Cc1cc(F)c(-n2nc(OC(F)(F)C(F)C(F)(F)F)cc2Cl)cc1SCC(F)(F)F (stereo not shown) [1-253, 5-chloro-1-{2-fluoro-4-methyl-5-(2,2,2-trifluoroethylthio)phenyl}-3-(1,1,2,3,3,3-hexafluoropropoxy)pyrazole] | ≥ 90% | ≥ 90% |  | ≥ 90% | 
11 | Cc1cc(F)c(-n2nc(OC(F)(F)C(F)OC(F)(F)F)c(Cl)c2Cl)cc1[S+]([O-])CC(F)(F)F (stereo not shown) [1-292, 4,5-dichloro-1-{2-fluoro-4-methyl-5-(2,2,2-trifluoroethylsulfinyl)phenyl}-3-{1,1,2-trifluoro-2-(trifluoromethoxy)ethoxy}pyrazole] | ≥ 90% | ≥ 90% | ≥ 90% |  | 
12 | Cc1cc(F)c(-n2nc(OC(F)(F)C(F)OC(F)(F)F)c(Cl)c2Cl)cc1SCC(F)(F)F (stereo not shown) [1-291, 4,5-dichloro-1-{2-fluoro-4-methyl-5-(2,2,2-trifluoroethylthio)phenyl}-3-{1,1,2-trifluoro-2-(trifluoromethoxy)ethoxy}pyrazole] | ≥ 90% | ≥ 90% | ≥ 90% |  | 
13 | Cc1cc(F)c(-n2nc(OCC(F)(F)C(F)(F)F)c(F)c2N)cc1SCC(F)(F)F [1-41, 5-amino-1-{2-fluoro-4-methyl-5-(2,2,2-trifluoroethylthio)phenyl}-4-fluoro-3-(2,2,3,3,3-pentafluoropropoxy)pyrazole] |  | ≥ 90% |  |  | ≥ 90%
14 | Cc1cc(F)c(-n2nc(OC(F)(F)C(F)C(F)(F)F)c(Cl)c2N)cc1[S+]([O-])CC(F)(F)F (stereo not shown) [1-264, 5-amino-4-chloro 1-{2-fluoro-4-methyl-5-(2,2,2-trifluoroethylsulfinyl)phenyl}-3-(1,1,2,3,3,3-hexafluoropropoxy)pyrazole] | ≥ 90% | ≥ 90% | ≥ 90% |  | 
15 | Cc1cc(F)c(-n2nc(OCC(F)(F)C(F)(F)F)cc2C=O)cc1SCC(F)(F)F [1-199, 1-{2-fluoro-4-methyl-5-(2,2,2-trifluoroethylthio)phenyl}-5-formyl-3-(2,2,3,3,3-pentafluoropropoxy)pyrazole] | ≥ 90% |  | ≥ 90% |  | 
16 | Cc1cc(F)c(-n2cc(C#N)c(OC(F)(F)C(F)OC(F)(F)F)n2)cc1[S+]([O-])CC(F)(F)F (stereo not shown) [1-1588, 4-cyano-1-{2-fluoro-4-methyl-5-(2,2,2-trifluoroethylsulfinyl)phenyl}-3-{1,1,2-trifluoro-2-(trifluoromethoxy)ethoxy}pyrazole] | ≥ 90% |  |  |  | 
17 | Cc1cc(F)c(-n2nc(OC(F)(F)C(F)OC(F)(F)F)cc2C(F)F)cc1[S+]([O-])CC(F)(F)F (stereo not shown) [1-1532, 5-difluoromethyl-1-{2-fluoro-4-methyl-5-(2,2,2-trifluoroethylsulfinyl)phenyl}-3-{1,1,2-trifluoro-2-(trifluoromethoxy)ethoxy}pyrazole] | ≥ 90% | ≥ 90% |  |  | 
18 | Cc1cc(F)c(-n2nc(OC(F)(F)C(F)C(F)(F)F)c(Cl)c2N)cc1SCC(F)(F)F (stereo not shown) [1-263, 5-amino-4-chloro-1-{2-fluoro-4-methyl-5-(2,2,2-trifluoroethylthio)phenyl}-3-(1,1,2,3,3,3-hexafluoropropoxy)pyrazole] | ≥ 90% | ≥ 90% | ≥ 90% |  | 
19 | Cc1cc(F)c(-n2nc(OC(F)(F)C(F)OC(F)(F)F)cc2CF)cc1[S+]([O-])CC(F)(F)F (stereo not shown) [1-1580, 1-{2-fluoro-4-methyl-5-(2,2,2-trifluoroethylsulfinyl)phenyl}-5-fluoromethyl-3-{1,1,2-trifluoro-2-(trifluoromethoxy)ethoxy}pyrazole] | ≥ 90% | ≥ 90% |  | ≥ 90% | 
20 | CNc1c(Cl)c(OC(F)(F)C(F)C(F)(F)F)nn1-c1cc(SCC(F)(F)F)c(C)cc1F (stereo not shown) [1-261, 4-chloro-1-{2-fluoro-4-methyl-5-(2,2,2-trifluoroethylthio)phenyl}-3-(1,1,2,3,3,3-hexafluoropropoxy)-5-methylaminopyrazole] | ≥ 90% | ≥ 90% | ≥ 90% |  | 
21 | Cc1cc(F)c(-n2ccc(C(F)(F)F)n2)cc1SCC(F)(F)F [V-613, reference compound] |  |  |  | 0% | 
22 | Cc1cc(F)c(-n2nc(OC(F)(F)C(F)OC(F)(F)F)cc2C#N)cc1[S+]([O-])CC(F)(F)F (stereo not shown) [1-669, 5-cyano-1-{2-fluoro-4-methyl-5-(2,2,2-trifluoroethylsulfinyl)phenyl}-3-{1,1,2-trifluoro-2-(trifluoromethoxy)ethoxy}pyrazole] | ≥ 90% | ≥ 90% |  |  | 
23 | Cc1cc(F)c(-n2cc(Cl)c(OC(F)(F)C(F)OC(F)(F)F)n2)cc1SCC(F)(F)F (stereo not shown) [1-289, 4-chloro-1-{2-fluoro-4-methyl-5-(2,2,2-trifluoroethylthio)phenyl}-3-{1,1,2-trifluoro-2-(trifluoromethoxy)ethoxy}pyrazole] | ≥ 90% | ≥ 90% |  |  | 
24 | Cc1cc(F)c(-n2nc(OCC(F)(F)C(F)(F)F)cc2C(=O)O)cc1SCC(F)(F)F [1-145, 1-{2-fluoro-4-methyl-5-(2,2,2-trifluoroethylthio)phenyl}-3-(2,2,3,3,3-pentafluoropropoxy)pyrazole-5-carboxylic acid] |  | ≥ 90% |  |  | 
